Measured values from publication PMC12675575, “A BRET biosensor for measuring uncompetitive engagement of PRMT5 complexes in cells” (Nature Communications, 2025).
Several values for one entry are separate records, joined by “and”; a condition that tells them apart may be missing. Equal values may be shown once. Read-outs that look alike come from different tables or passages of the source.

Tests used:
NL-PRMT5 with WDR77 = target: T1, NL-PRMT5 with WDR77 (Homo sapiens, UniProt O14744); test: MRTX1719 kinetic washout (residence time) NanoBRET experiment in HEK293 cells; format: cell-based; conditions: 100uM MTA
T1 construct: host or cells: HEK293
T1 sequence (O14744 whole entry): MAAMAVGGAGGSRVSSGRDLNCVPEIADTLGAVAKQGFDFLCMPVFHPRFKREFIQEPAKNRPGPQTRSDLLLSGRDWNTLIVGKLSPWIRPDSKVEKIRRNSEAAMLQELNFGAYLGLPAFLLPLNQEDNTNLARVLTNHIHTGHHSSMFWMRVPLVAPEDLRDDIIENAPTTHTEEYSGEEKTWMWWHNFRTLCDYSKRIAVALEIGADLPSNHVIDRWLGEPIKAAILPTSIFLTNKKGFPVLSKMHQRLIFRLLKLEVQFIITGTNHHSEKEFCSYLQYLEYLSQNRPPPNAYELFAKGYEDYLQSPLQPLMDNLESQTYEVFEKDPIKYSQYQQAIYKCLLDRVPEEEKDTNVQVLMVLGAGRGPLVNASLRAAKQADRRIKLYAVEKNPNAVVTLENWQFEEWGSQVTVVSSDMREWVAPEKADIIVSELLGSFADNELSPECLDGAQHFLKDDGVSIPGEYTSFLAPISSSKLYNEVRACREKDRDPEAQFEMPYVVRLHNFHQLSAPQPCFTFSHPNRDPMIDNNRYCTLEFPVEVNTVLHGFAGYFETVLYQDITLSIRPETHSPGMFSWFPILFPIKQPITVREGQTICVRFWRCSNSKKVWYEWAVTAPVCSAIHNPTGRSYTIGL
T1 sequence (Q9BQA1 whole entry partner): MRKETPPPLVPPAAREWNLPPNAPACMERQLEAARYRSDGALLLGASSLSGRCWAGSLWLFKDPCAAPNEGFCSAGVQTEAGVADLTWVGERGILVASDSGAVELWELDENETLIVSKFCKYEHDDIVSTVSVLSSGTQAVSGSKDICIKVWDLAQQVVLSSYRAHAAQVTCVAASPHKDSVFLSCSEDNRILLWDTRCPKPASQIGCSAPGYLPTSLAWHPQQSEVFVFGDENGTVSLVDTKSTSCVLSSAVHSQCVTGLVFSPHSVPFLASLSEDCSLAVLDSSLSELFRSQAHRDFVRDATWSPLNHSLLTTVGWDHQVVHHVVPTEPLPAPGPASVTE
Procedure: On the next day, cells were resuspended in a 15 mL falcon tube and adjusted to 2 × 10^5 cells/mL in assay medium (OptiMEM with 1% FBS). […] After incubation, cells were centrifuged at 300 × g for 5 min, medium was aspirated and cells were washed with pre-warmed assay medium, centrifuged again and adjusted to 2 × 10^5 cells/mL. For the full occupancy control, MTA and compound concentrations were maintained. 34 μL of cells were added per well in a seeded into 96-well non-binding surface-treated plates (Corning), followed by addition of 36 μL of Complete 2x Substrate (prepared by combining Nano-Glo Substrate and Extracellular NanoLuc Inhibitor in Opti-MEM, according to the manufacturer’s protocol (Promega)). Then, 2 μL of ETP CBH-002 at a final concentration of 30 nM were added before immediate readout at the PheraSTAR FSX for 6 h. Readout and analysis were conducted as described earlier.

NLuc-PRMT5 = NLuc-PRMT5 (Homo sapiens, UniProt O14744); test: BRET probe sensitivity to exogenous MTA in live HEK293 cells expressing NLuc-PRMT5; format: cell-based; design: host or cells: HEK293 (live cells; digitonin lysate for the SAM titration); conditions: for remaining activity at […] / remaining activity at 1000 µM: Log([MTA]), room temperature, read-out: Normalized BRET probe signal; for remaining activity at 1000 µM: uM 3.00
Chain of NLuc-PRMT5 (O14744 whole entry): as the sequence (O14744 whole entry) above
Chain of NLuc-PRMT5 (Q9BQA1 whole entry partner): as the sequence (Q9BQA1 whole entry partner) above
Procedure: To measure BRET probe sensitivity to both MAT2A inhibition and exogenous MTA in live cells, HEK293 cells were pre-treated with 30 nM CBH-002 and incubated at 37 °C and 5% CO2 for 2 h. For MAT2A inhibition, a 20 µM, 3-fold, 11 pt titration series of Compound A (Selleckchem) was added to wells. Cells were incubated either at 37 °C (Fig. 3D) or room temperature (Fig. S3D). Data were normalized using Eq. (2), where BRETMIN = instrument background (no CBH-002), and BRETMAX = 2 h vehicle treatment, and fit curves were generated using Eq. (1). For MTA sensitivity cells were treated with a 1 mM, 11 pt, 2-fold series of MTA (Sigma) and cells were incubated at room temperature for 2 h, reading in 15 min intervals. Data were normalized using Eq. (2), where BRETMIN = instrument background (no CBH-002), and BRETMAX = 2 h + vehicle treatment. Data were fit with Eq. (1).

Structure (SMILES): CSC[C@H]1O[C@@H](n2cnc3c(N)ncnc32)[C@H](O)[C@@H]1O [MTA, methylthioadenosine]
- BRET, Figure S5I (NL-PRMT5 with WDR77; time 0 min): 0.1105 and 0.1241 and 0.1192 and 0.1078 and 0.1088 and 0.1195 and 0.1138 and 0.1151
- BRET, Figure S5I (NL-PRMT5 with WDR77; time 6 min): 0.3119 and 0.3036 and 0.3616 and 0.2837 and 0.2843 and 0.315 and 0.3325 and 0.3197
- BRET, Figure S5I (NL-PRMT5 with WDR77; time 12 min): 0.5293 and 0.4857 and 0.5913 and 0.4586 and 0.456 and 0.5044 and 0.5405 and 0.5123
- BRET, Figure S5I (NL-PRMT5 with WDR77; time 18 min): 0.7285 and 0.6611 and 0.7995 and 0.6306 and 0.6158 and 0.6735 and 0.7234 and 0.6889
- BRET, Figure S5I (NL-PRMT5 with WDR77; time 24 min): 0.8959 and 0.8098 and 0.9637 and 0.7786 and 0.7595 and 0.8227 and 0.869 and 0.8404
- BRET, Figure S5I (NL-PRMT5 with WDR77; time 30 min): 1.03 and 0.937 and 1.09 and 0.9086 and 0.8803 and 0.9486 and 0.9887 and 0.9612
- BRET, Figure S5I (NL-PRMT5 with WDR77; time 36 min): 1.134 and 1.042 and 1.191 and 1.015 and 0.9796 and 1.049 and 1.086 and 1.061
- BRET, Figure S5I (NL-PRMT5 with WDR77; time 42 min): 1.201 and 1.125 and 1.257 and 1.0947 and 1.057 and 1.127 and 1.168 and 1.1428
- BRET, Figure S5I (NL-PRMT5 with WDR77; time 48 min): 1.264 and 1.1938 and 1.301 and 1.164 and 1.1261 and 1.183 and 1.221 and 1.192
- BRET, Figure S5I (NL-PRMT5 with WDR77; time 54 min): 1.305 and 1.245 and 1.342 and 1.215 and 1.178 and 1.2272 and 1.267 and 1.255
- BRET, Figure S5I (NL-PRMT5 with WDR77; time 60 min): 1.34 and 1.2815 and 1.366 and 1.252 and 1.226 and 1.27 and 1.304 and 1.278
- BRET, Figure S5I (NL-PRMT5 with WDR77; time 66 min): 1.37 and 1.322 (2×) and 1.406 and 1.285 and 1.248 and 1.298 and 1.329
- BRET, Figure S5I (NL-PRMT5 with WDR77; time 72 min): 1.398 and 1.341 and 1.428 and 1.319
- remaining activity at […] (NLuc-PRMT5; HEK293, 0.5 h, uM 0.29, Time (min) 30): 98.1%
- remaining activity at […] (NLuc-PRMT5; HEK293, 0.5 h, uM 0.59, Time (min) 30): 97.9%
- remaining activity at […] (NLuc-PRMT5; HEK293, 0.5 h, uM 0.89, Time (min) 30): 99.1%
- remaining activity at […] (NLuc-PRMT5; HEK293, 0.5 h, uM 1.19, Time (min) 30): 97.4%
- remaining activity at […] (NLuc-PRMT5; HEK293, 0.5 h, uM 1.49, Time (min) 30): 95.2%
- remaining activity at […] (NLuc-PRMT5; HEK293, 0.5 h, uM 1.80, Time (min) 30): 93%
- remaining activity at […] (NLuc-PRMT5; HEK293, 0.5 h, uM 2.10, Time (min) 30): 90.2%
- remaining activity at […] (NLuc-PRMT5; HEK293, 0.5 h, uM 2.40, Time (min) 30): 87.8%
- remaining activity at […] (NLuc-PRMT5; HEK293, 0.5 h, uM 2.70, Time (min) 30): 86.4%
- remaining activity at 1000 µM (NLuc-PRMT5; HEK293, 0.5 h, Time (min) 30): 85.4%
- remaining activity at […] (NLuc-PRMT5; HEK293, 1 h, uM 0.29, Time (min) 60): 99.2%
- remaining activity at […] (NLuc-PRMT5; HEK293, 1 h, uM 0.59, Time (min) 60): 99.7%
- remaining activity at […] (NLuc-PRMT5; HEK293, 1 h, uM 0.89, Time (min) 60): 98.1%
- remaining activity at […] (NLuc-PRMT5; HEK293, 1 h, uM 1.19, Time (min) 60): 96.8%
- remaining activity at […] (NLuc-PRMT5; HEK293, 1 h, uM 1.49, Time (min) 60): 94.8%
- remaining activity at […] (NLuc-PRMT5; HEK293, 1 h, uM 1.80, Time (min) 60): 91.1%
- remaining activity at […] (NLuc-PRMT5; HEK293, 1 h, uM 2.10, Time (min) 60): 87.7%
- remaining activity at […] (NLuc-PRMT5; HEK293, 1 h, uM 2.40, Time (min) 60): 84.6%
- remaining activity at […] (NLuc-PRMT5; HEK293, 1 h, uM 2.70, Time (min) 60): 79.9%
- remaining activity at 1000 µM (NLuc-PRMT5; HEK293, 1 h, Time (min) 60): 78.1%
- remaining activity at […] (NLuc-PRMT5; HEK293, 2 h, uM 0.29, Time (min) 120): 98.3%
- remaining activity at […] (NLuc-PRMT5; HEK293, 2 h, uM 0.59, Time (min) 120): 98.5%
- remaining activity at […] (NLuc-PRMT5; HEK293, 2 h, uM 0.89, Time (min) 120): 97.2%
- remaining activity at […] (NLuc-PRMT5; HEK293, 2 h, uM 1.19, Time (min) 120): 96%
- remaining activity at […] (NLuc-PRMT5; HEK293, 2 h, uM 1.49, Time (min) 120): 93.7%
- remaining activity at […] (NLuc-PRMT5; HEK293, 2 h, uM 1.80, Time (min) 120): 90%
- remaining activity at […] (NLuc-PRMT5; HEK293, 2 h, uM 2.10, Time (min) 120): 85.1%
- remaining activity at […] (NLuc-PRMT5; HEK293, 2 h, uM 2.40, Time (min) 120): 81.7%
- remaining activity at […] (NLuc-PRMT5; HEK293, 2 h, uM 2.70, Time (min) 120): 75.7%
- remaining activity at 1000 µM (NLuc-PRMT5; HEK293, 2 h, Time (min) 120): 72.8%
- Time to plateau of BRET inhibition (NLuc-PRMT5; live HEK293, room temperature): ~ 2 h
